We go through 24 molecules from ChEMBL document CHEMBL1201862, “PubChem BioAssay data set” (2004).

Some test systems named below: DMS-114; LXFL 529; HOP-18; KM-20L2; DLD-1; SNB-78; RXF 631; DMS-273; XF498.
Common to all, as to experiment: NCI tumour cell line growth inhibition, 48 h

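Compound exposure: 48 hours, 5 concentrations, 96-well plates. GI50: concentration for 50% inhibition of growth.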 Activity calls are given as the source filed them. Rule as the data show it: active = GI50 up to about 1.1 µM and inactive = higher. Some results are limits rather than exact numbers.

Regarding `CCOc1ccc2c(ccc(/C=C/c3cc(C)c4cccnc4c3O)[n+]2C)c1`, the GI50 with DMS-114 was 0.301 µM (active); in the experiment with LXFL 529, 0.384 µM (active); with HOP-18, 2.8 µM (inactive); in the experiment on KM-20L2, 0.527 µM (active); in the experiment with DLD-1 it was 1.28 µM (inactive).

Regarding `COC(=O)/C(=N\NC(=O)c1ccccc1O)C(C#N)c1ccc(Cl)cc1` (stereo not drawn), the GI50 was 24.7 µM (inactive) in the experiment on DMS-114; 34.3 µM (inactive) with LXFL 529; 69.3 µM (inactive) in the experiment with HOP-18; 33.8 µM (inactive) with KM-20L2; 26.2 µM (inactive) with SNB-78; 24.5 µM (inactive) in the experiment with DLD-1. Moreover, the GI50 with RXF 631 is 36.1 µM (inactive).

Turning to `Nc1c(C(=O)Nc2ccccc2O)[n+]([O-])c2ccccc2[n+]1[O-]`, the GI50 is 20.5 µM (inactive) in the experiment with DMS-114; > 100 µM (inactive) in the experiment with LXFL 529; > 100 µM (inactive) in the experiment on HOP-18; > 100 µM (inactive) with KM-20L2; 32.6 µM (inactive) in the experiment with DMS-273; > 100 µM (inactive) with SNB-78. For the same molecule, the GI50 was > 100 µM (inactive) in the experiment with DLD-1 and 50.6 µM (inactive) with RXF 631.

Regarding `Cc1cc(=O)oc2cc(OCc3nc4ccccc4c(=O)[nH]3)ccc12`, the GI50 in the experiment on DMS-114, with LXFL 529, in the experiment on HOP-18, in the experiment with KM-20L2, in the experiment with DMS-273 and with DLD-1 was > 100 µM (inactive) throughout. In addition, in the experiment with XF498, the GI50 is > 100 µM (inactive).

Take `CCC12C[N+]3([O-])CCc4c([nH]c5ccccc45)C(C(=O)OC)(c4cc5c(cc4OC)N(C)C4C(O)(C(=O)OC)C(OC(C)=O)C6(CC)C=CCN7CCC54C76)CC(C3)C1O2` (stereo not drawn): the GI50 was 0.36 µM (active) in the experiment on DMS-114; 0.656 µM (active) in the experiment on LXFL 529; 16 µM (inactive) in the experiment with HOP-18; 0.256 µM (active) with KM-20L2; 0.237 µM (active) in the experiment on DMS-273; 0.506 µM (active) in the experiment with SNB-78. Moreover, the GI50 is 0.883 µM (active) in the experiment with DLD-1 and 0.407 µM (active) with XF498.

As for `CC(CCC=O)CCOCc1ccccc1` (stereo not drawn), the GI50 in the experiment with DMS-114 was 61.2 µM (inactive); in the experiment with LXFL 529, > 100 µM (inactive); with HOP-18, > 100 µM (inactive); in the experiment with KM-20L2, > 100 µM (inactive); with DMS-273, > 95.9 µM (inactive); with SNB-78 it was > 100 µM (inactive). Moreover, the GI50 with DLD-1 and with XF498 was > 100 µM (inactive) throughout.

Take `O=C(OCc1ccccc1)n1cccc1`: the GI50 in the experiment with DMS-114 was 55.2 µM (inactive); in the experiment on LXFL 529, > 100 µM (inactive); with HOP-18, > 100 µM (inactive); in the experiment on KM-20L2 it was > 100 µM (inactive); in the experiment with DMS-273, > 100 µM (inactive); in the experiment on SNB-78, > 100 µM (inactive). For the same molecule, the GI50 is > 100 µM (inactive) with DLD-1, 78.2 µM (inactive) in the experiment on XF498 and > 100 µM (inactive) with RXF 631.

Consider `CCc1c(C#N)c(=O)[nH]c(=O)n1CCN1CCN(C(=O)NCCCCCCNC(=O)N2CCN(CCn3c(CC)c(C#N)c(=O)[nH]c3=O)CC2)CC1`, for which the GI50 in the experiment with DMS-114, with LXFL 529, in the experiment with HOP-18, in the experiment on KM-20L2, in the experiment with DMS-273 and with SNB-78 was > 100 µM (inactive) each time. The GI50 in the experiment on DLD-1, in the experiment on XF498 and with RXF 631 was > 100 µM (inactive) throughout.

`COc1ccccc1-c1cc(=O)c2cc(C)c(C)c(C(=O)O)c2o1`: the GI50 with DMS-114, in the experiment with LXFL 529, with KM-20L2, in the experiment on DMS-273, in the experiment on SNB-78 and with DLD-1 was > 100 µM (inactive) throughout. Further, in the experiment on XF498, the GI50 was > 100 µM (inactive).

With `O=C1N(c2ccc(Cl)cc2)C(=O)C2(SC=NN2Cc2ccccc2)N1c1ccc(Cl)cc1` (stereo not drawn), the GI50 in the experiment with DMS-114 was 12.3 µM (inactive); with LXFL 529, > 100 µM (inactive); in the experiment on HOP-18 it was > 100 µM (inactive); in the experiment with KM-20L2, > 100 µM (inactive); with SNB-78 it was > 100 µM (inactive); in the experiment with DLD-1, > 100 µM (inactive). Also, the GI50 is 28.6 µM (inactive) in the experiment with XF498 and > 100 µM (inactive) with RXF 631.

Consider `CN(C)C(=S)Nc1nnc(NC23CC4CC(CC(C4)C2)C3)s1.[O-][Cl+3]([O-])([O-])O`, for which the GI50 with DMS-114 was 19.4 µM (inactive); in the experiment on KM-20L2, 11.1 µM (inactive); with DMS-273, 20.6 µM (inactive); in the experiment on SNB-78, 39.2 µM (inactive).

Take `C/C(=N\NC(=S)NC(CCC(=O)O)C(=O)O)c1ccccn1` (stereo not drawn): the GI50 with DMS-114, in the experiment with LXFL 529, with HOP-18, with KM-20L2, in the experiment on SNB-78 and with DLD-1 was > 100 µM (inactive) each time. Besides, the GI50 in the experiment with XF498 and in the experiment on RXF 631 was > 100 µM (inactive) in each case.

Turning to `Cc1cc(Cl)ccc1NC(=O)C(=O)C(C(=O)c1ccc2ccccc2c1)C1OC(=O)c2ccccc21` (stereo not drawn), the GI50 in the experiment with DMS-114 was 6.15 µM (inactive); in the experiment with LXFL 529 it was 6.47 µM (inactive); in the experiment with HOP-18 it was 0.544 µM (active); in the experiment on KM-20L2 it was 24 µM (inactive); in the experiment with DMS-273, 12.4 µM (inactive); in the experiment on SNB-78 it was 10.3 µM (inactive). Moreover, the GI50 in the experiment with DLD-1 is 14.3 µM (inactive); with RXF 631 it was 7.89 µM (inactive).

Turning to `O=C(CSc1nnc(-c2ccc(/N=C\c3ccc(Cl)cc3)cc2)o1)Nc1ccc([N+](=O)[O-])cc1`, the GI50 with DMS-114 was 16.2 µM (inactive); in the experiment with LXFL 529, 15.8 µM (inactive); with HOP-18, 29 µM (inactive); in the experiment on KM-20L2, 27.2 µM (inactive); in the experiment on DMS-273, 16.5 µM (inactive); in the experiment on SNB-78, 20 µM (inactive). Further, the GI50 with XF498 was 22.9 µM (inactive).

On to `COc1cc(/C=C2\NC(=O)C3Cc4c(OC)c(C)c(OC)c(OC)c4C2N3C)c(OC)c(C)c1OC` (stereo not drawn), for which the GI50 with DMS-114, with LXFL 529, in the experiment on HOP-18, with KM-20L2, in the experiment on DMS-273 and in the experiment on SNB-78 was > 100 µM (inactive) throughout. Also, the GI50 in the experiment on DLD-1, in the experiment on XF498 and in the experiment on RXF 631 was > 100 µM (inactive) in each case.

With `COc1cccc(N2C(=O)/C(=C/c3ccc(N(CCC#N)CCC#N)cc3)N=C2c2cc([N+](=O)[O-])ccc2Cl)c1`, the GI50 is > 100 µM (inactive) with DMS-114; 67.9 µM (inactive) in the experiment on LXFL 529; > 100 µM (inactive) with HOP-18; 97.9 µM (inactive) in the experiment on KM-20L2; 38.2 µM (inactive) with DMS-273; > 100 µM (inactive) with SNB-78. Also, the GI50 with DLD-1 is 60 µM (inactive); in the experiment on RXF 631 it was > 100 µM (inactive).

In the case of `COC1=CC(=O)C(Br)=CC1=O`, the GI50 in the experiment with DMS-114 was 20.5 µM (inactive); with LXFL 529 it was 17.2 µM (inactive); in the experiment with KM-20L2, 33.3 µM (inactive); in the experiment on DMS-273 it was > 10 µM (inactive); in the experiment with SNB-78, > 10 µM (inactive); in the experiment on DLD-1, 32.3 µM (inactive). Besides, the GI50 was 16.9 µM (inactive) in the experiment on XF498 and 31.6 µM (inactive) with RXF 631.

Regarding `O=C(c1nc2ccc(Cl)cc2nc1O)C(O)c1ccc2c(c1)OCO2` (stereo not drawn), the GI50 with DMS-114 is 8.43 µM (inactive); in the experiment with LXFL 529 it was 77.6 µM (inactive); with HOP-18, 12.8 µM (inactive); with KM-20L2 it was 74.5 µM (inactive); in the experiment with DMS-273, > 100 µM (inactive); in the experiment on DLD-1, > 100 µM (inactive). Besides, the GI50 with XF498 and in the experiment with RXF 631 was > 100 µM (inactive) each time.

Regarding `CSc1nc2c(nc(N)n2C2OC(CO)C(O)C(O)C2O)c(=O)[nH]1` (stereo not drawn), the GI50 in the experiment on DMS-114, with LXFL 529, in the experiment on HOP-18, in the experiment on KM-20L2, with SNB-78 and with DLD-1 was > 100 µM (inactive) throughout. Besides, the GI50 is 41.3 µM (inactive) in the experiment on XF498 and > 100 µM (inactive) in the experiment with RXF 631.

Regarding `O=c1[nH]c(=O)n(C2OC(COP(=O)(O)OP(=O)(O)OC3OC(CO)C(O)C(O)C3O)C(O)C2O)cc1F` (stereo not drawn), the GI50 is 1.13 µM (inactive) in the experiment on DMS-114; 0.151 µM (active) in the experiment on LXFL 529; 3.22 µM (inactive) with HOP-18; 0.101 µM (active) in the experiment on KM-20L2; 0.366 µM (active) in the experiment on SNB-78; < 0.0119 µM (active) in the experiment with DLD-1. Also, the GI50 in the experiment on XF498 is 0.277 µM (active); in the experiment with RXF 631 it was 0.0716 µM (active).

Regarding `CC(C)C1=CC23CCC4C(C)(C(=O)O)CCCC4(C)C2CC1C1C(=O)N(c2ccccc2)C(=O)C13` (stereo not drawn), the GI50 was 35.4 µM (inactive) with DMS-114; 43.9 µM (inactive) in the experiment on LXFL 529; > 100 µM (inactive) in the experiment on HOP-18; 39.6 µM (inactive) in the experiment on KM-20L2; 36.1 µM (inactive) in the experiment on DMS-273; > 100 µM (inactive) in the experiment with DLD-1. In addition, the GI50 in the experiment on XF498 was 35.2 µM (inactive).

As for `CC1=C2C(=CC(C)(C)C2O)C(=O)C(C)(O)C12CC2` (stereo not drawn), the GI50 in the experiment with DMS-114 is 0.00794 µM (active); with LXFL 529 it was 0.0198 µM (active); with HOP-18 it was 0.0337 µM (active); in the experiment on KM-20L2, 0.00521 µM (active); in the experiment with DMS-273, 0.00489 µM (active); in the experiment with SNB-78 it was 0.00893 µM (active). Besides, the GI50 with DLD-1 is 0.00665 µM (active); with XF498 it was 0.00906 µM (active).

Consider `COC(=O)CCC12CCC(=O)C1[C@@H](C(=O)OC)C[C@H]2C(=O)OC` (stereo partly drawn), for which the GI50 in the experiment on DMS-114, in the experiment with LXFL 529, in the experiment on HOP-18, in the experiment on KM-20L2, with DMS-273 and with SNB-78 was > 100 µM (inactive) each time. Further, the GI50 in the experiment with DLD-1, in the experiment with XF498 and in the experiment on RXF 631 was > 100 µM (inactive) each time.

On to `O=C(Nc1ccccc1)OCc1nc2c([nH]1)C(=O)C=CC2=O`, for which the GI50 is 3.1 µM (inactive) with LXFL 529; 10.5 µM (inactive) with HOP-18; 19.4 µM (inactive) in the experiment on KM-20L2; 24.2 µM (inactive) with DMS-273; 23.2 µM (inactive) in the experiment with SNB-78; > 100 µM (inactive) in the experiment with DLD-1. Further, the GI50 in the experiment with XF498 was 17.2 µM (inactive).
